US11224223B2, “Feeding deterrence of pests such as Hemiptera, Lepidoptera and Coleoptera” (BEDOUKIAN RESEARCH, INC., priority 2012, dated 2022)

How the values were obtained:
Assay type in all cases: in vivo
Codling Moth larvae = assay: Repellency as feeding deterrence and mortality in Codling Moth larvae on treated media; settings: for Repellency at 24 hours: first instar larva, control 8%
Procedure: Another test was designed to measure the repellency as feeding deterrence in Codling Moth larvae. The treatment was applied to the surface of a proprietary laboratory media in a tray with wells for each compound. The media was allowed to dry for 30-60 minutes so that larvae were not exposed to it as a liquid. One first instar codling moth larva was then placed on the treated media. The cover film was placed on the tray to prevent escapes. Ten additional replicates treated with a 57% ethanol solution were prepared to serve as controls. […] After the 24 hour reading, the larvae were extracted from the media to record any mortality.
Mortality observations were also made for the above protocol. The control was the 57% ethanol:43% water solution.

[1] = tested on: Leptinotarsa decemlineata-Colorado Potatoe Beetles; assay: Choice feeding assay on potato leaf disks; settings: 3% compound, larvae, 24 h
Procedure: For choice feeding assays, 3% alcohol solutions of the tested compounds are prepared. Disks (4.0 cm in diameter) are cut from potato leaves and are dipped in the test solutions or alcohol alone as a control. After the complete evaporation of the solvent, the disks are offered to 10 larvae. Control and treated disks are placed at alternate corners in Petri dishes (150 by 20 mm) lined with moistened filter paper (choice test). All dishes are placed in an incubator. Four replicates and 40 larva are used for each chemical. In each replicate, the insects are allowed to feed ad libitum for 24 h at 24 C under a 16:8 (L:D) photoperiod. After 24 h, the remaining uneaten area of each potato leaf disk is measured using a scanner and software. The selective antifeeding rate (%) formula is [(C−T)/(C+T)]×100, and the non-selective antifeeding rate (%) formula is [(C−T)/C)]×100, where C and T are the areas consumed by the control and treated leaf disks, respectively.

Popillia japonica = assay: Japanese beetle feeding damage on basil; settings: 3% compound; basil leaf disks; adult beetle; 24 h
Procedure: Japanese Beetle Feeding Damage on Basil For choice feeding assays, 3% alcohol solutions of the tested compounds are prepared. Disks (4.0 cm in diameter) are cut from basil leaves and are dipped in the test solutions or alcohol alone as a control. After the complete evaporation of the solvent, the disks are offered to 1 adult beetle. All dishes are placed in an incubator. Four replicates are used for each chemical. After 24 h, the remaining uneaten area of each basil leaf disk is measured using a scanner and software. The selective antifeeding rate (%) formula is [(C−T)/(C+T)]×100, and the non-selective antifeeding rate (%) formula is [(C−T)/C)]×100, where C and T are the areas consumed by the control and treated leaf disks, respectively.

sharpshooters = assay: Leafhopper repellency on citrus choice assays; settings: 3% compound; citrus seedlings; 100 sharpshooters per cage; control 50/50
Excerpt: (§1) Leafhopper Repellency on Citrus Choice Assays Citrus seedlings are sprayed with either a 3% solution of repellent chemical in a 5%:95% ETOH:Water or only 5%:95% ETOH:Water as a control. Two seedlings are placed in a screen cage, either a treatment vs control tree or a control vs control tree. 100 sharpshooters are released into each cage. The number of sharpshooters choosing each leaf is counted for both choice tests. The number of sharpshooters choosing each treatment is compared to the control to determine if there is a repellent effect.

[2] = tested on: Euschistus heros-Neotropical Brown Stink Bugs; assay: Stink bug feeding damage on soybean pods; settings: 3% compound, soybean plants at R6 stage, 48 hours
Procedure: To compare the feeding/resting preference of stink bug adults for different plant parts, 10 pots with soybean plants at the R6 (pod-filling) stage of development are used. 5 pots of soybeans are sprayed with 3% of treatment in a 2% Triton X:water solution and 5 pots of soybean are treated with 2% Triton X:water solution as controls. Thirty stink bugs are placed individually in each cage and allowed to feed for 48 hours. Insects are removed and plant parts are collected for visual analysis of damage. Feeding damage on the pods is counted for both treatments. The selective antifeeding rate (%) formula is [(C−T)/(C+T)]×100, and the non-selective antifeeding rate (%) formula is [(C−T)/C)]×100, where C and T are the numbers of feeding damages on the control and treated plant pods, respectively.

psyllids = assay: Psyllid repellency on potato choice assays; settings: 3% compound; potato plants; 100 psyllids per cage; control 50/50
Excerpt: Psyllid Repellency on Potato Choice Assays
as §1, with “Potato plants” for “Leafhopper Repellency on Citrus Choice Assays Citrus seedlings”, “plants” for “seedlings”, “tree,” for “tree.”, “psyllids” for “sharpshooters”

Dermestid spp. = assay: Dermestid beetle feeding damage on silk fabric; settings: 3% compound; undyed silk disks; late instar larvae; 1 week
Procedure: Dermestid Beetle Feeding Damage on Silk Fabric
For feeding assays, 3% alcohol solutions of the tested compounds are prepared. Disks (4.0 cm in diameter) of undyed silk fabric are dipped in the test solutions or alcohol alone as a control. After the complete evaporation of the solvent, the disks are offered to 10 late instar larvae. All dishes are placed in an incubator. Four replicates are used for each chemical. After 1 week, the remaining uneaten area of each silk disk is measured using a scanner and software. The selective antifeeding rate (%) formula is [(C−T)/(C+T)]×100, and the non-selective antifeeding rate (%) formula is [(C−T)/C)]×100, where C and T are the areas consumed by the control and treated silk disks, respectively.

Plodia interpunctella = assay: Feeding repellent assay for Indian meal moth larva on treated rice; settings: 10% compound in a 5% Ethanol:95% water solution, third instar larvae, 1 week
Procedure: (§2) Feeding Repellent Assay for Indian Meal Moth Larva One gram of rice is weighed and treated with 2% by weight of each test chemical or ethanol as a control for each treatment and replicate. The grains are allowed to dry and then weighed again. Treated or control rice grains are placed in a petri dish. Third instar larvae are starved for 8 h and gently introduced into the center of each compartment. 20 larva are screened per treatment, and each experiment is repeated three times. The weight of rice grains is measured again after 1 week. The selective antifeeding rate (%) formula is [(C−T)/(C+T)]×100, and the non-selective antifeeding rate (%) formula is [(C−T)/C)]×100, where C and T are the areas consumed by the control and treated leaf disks, respectively.

Tineola spp. = assay: Clothes moth feeding damage on silk fabric, choice test; settings: 3% compound; silk disks; late instar larvae; 24 hours; control 50/50
Procedure: For feeding assays, 3% alcohol solutions of the tested compounds are prepared. Disks (2.0 cm in diameter) of undyed silk fabric are dipped in the test solutions or alcohol alone as a control. After the complete evaporation of the solvent, the disks are presented in a choice test to 10 late instar Tineola spp. larvae. All dishes are placed in an incubator in the dark. Four replicates are used for each chemical. After 24 hours, the number of individuals choosing to feed on each disk are counted.

Sitostroga cerealella = assay: Feeding repellent assay for Angoumois larva on treated rice; settings: 10% compound in a 5% Ethanol:95% water solution, third instar larvae, 1 week
Procedure: Feeding Repellent Assay for Angoumois Larva
as §2, with “One” for “Feeding Repellent Assay for Indian Meal Moth Larva One”

Aphis gossypii = assay: Melon aphid repellency on leaf choice assays; settings: 3% compound in a Triton X:Water solution; n=100; control 50/50
Excerpt: Melon Aphid Repellency on Leaf Choice Assays Aphis gossypii are maintained on squash plants. Individual aphids (n=100) are given the choice between leaves with and without repellent treatments. A separate group of aphids are given a choice between untreated vs. untreated leaves as a control. The number of aphids choosing each leaf is counted both choice tests. The number of aphids choosing each treatment is compared to the control to determine the repellent effect.

[3] = tested on: brown marmorated stink bugs (BMSB); assay: Repellency as feeding deterrence in brown marmorated stink bugs, treated filter paper with green bean; settings: control 38%
Procedure: A test was designed to measure the repellency as feeding deterrence in brown marmorated stink bugs (BMSB). Five replicates of 5 BMSBs were introduced into test arenas, containing one 60 mm×15 mm Petri dish with treated filter papers in which a food source (green bean) was attached, at the start of the test. The small Petri dishes containing the treated filter paper and food source were covered with a fitted Petri dish lid in between observation times, and were removed 5 minutes before each observation time to prevent stink bugs from feeding until sated. The distribution of the BMSBs was observed and documented hourly for 5 hours.

[4] = compound at 3.5% in a 57% Ethanol:43% water solution
[5] = compound at 2.5% in a 57% Ethanol:43% water solution

## CCCCCCCC1CC(=O)C=C(C)C1 (centres unmarked) [3-Methyl-5-Heptyl-2-Cyclohexenone]
Codling Moth larvae; [4]
  Increased Mortality over Control Mortality at 24 hours: 93%
  Repellency at 24 hours: 95%

## CCCC1CC(C)=CC(O)C1 (centres unmarked) [3-Methyl-5-Propyl-2-Cyclohexenol]
Codling Moth larvae; [4]
  Increased Mortality over Control Mortality at 24 hours: 9%
  Repellency at 24 hours: 30%

## CC(C)=CCC/C(C)=C/CC1CCCC1O (centres unmarked) [Apritol]
[1]
  % Repellency: 15%
Popillia japonica
  % Repellency: 15%
sharpshooters
  Number of Psyllids Choosing each Treatment: Treated: 30
  Number of Psyllids Choosing each Treatment: Untreated: 70
[2]
  % Antifeedent Activity: 60%
psyllids
  Number of Psyllids Choosing each Treatment: Treated: 30
  Number of Psyllids Choosing each Treatment: Untreated: 70
Dermestid spp.
  % Repellency: 15%
Plodia interpunctella
  % Antifeedent Activity: 70%
Tineola spp.
  Individuals choosing to feed on each disk: Treated: 20
  Individuals choosing to feed on each disk: Untreated: 80
Sitostroga cerealella
  % Antifeedent Activity: 70%
Aphis gossypii
  Number of Aphids Choosing each Treatment: Treated: 30
  Number of Aphids Choosing each Treatment: Untreated: 70

## CC(C)=CCC/C(C)=C/CC1CCCC1=O (centres unmarked) [Apritone, apritone]
[1]
  % Repellency: 15%
Popillia japonica
  % Repellency: 15%
sharpshooters
  Number of Psyllids Choosing each Treatment: Treated: 30
  Number of Psyllids Choosing each Treatment: Untreated: 70
[2]
  % Antifeedent Activity: 60%
psyllids
  Number of Psyllids Choosing each Treatment: Treated: 30
  Number of Psyllids Choosing each Treatment: Untreated: 70
Dermestid spp.
  % Repellency: 15%
Plodia interpunctella
  % Antifeedent Activity: 70%
Tineola spp.
  Individuals choosing to feed on each disk: Treated: 20
  Individuals choosing to feed on each disk: Untreated: 80
Sitostroga cerealella
  % Antifeedent Activity: 70%
Aphis gossypii
  Number of Aphids Choosing each Treatment: Treated: 30
  Number of Aphids Choosing each Treatment: Untreated: 70

## CCCCCCCC1CCCC(=O)O1 (centres unmarked) [Delta-dodecalactone]
[1]
  % Repellency: 40%
Popillia japonica
  % Repellency: 40%
sharpshooters
  Number of Psyllids Choosing each Treatment: Treated: 20
  Number of Psyllids Choosing each Treatment: Untreated: 80
[2]
  % Antifeedent Activity: 80%
psyllids
  Number of Psyllids Choosing each Treatment: Treated: 20
  Number of Psyllids Choosing each Treatment: Untreated: 80
Dermestid spp.
  % Repellency: 40%
Plodia interpunctella
  % Antifeedent Activity: 70%
Tineola spp.
  Individuals choosing to feed on each disk: Treated: 10
  Individuals choosing to feed on each disk: Untreated: 90
Sitostroga cerealella
  % Antifeedent Activity: 70%
Aphis gossypii
  Number of Aphids Choosing each Treatment: Treated: 20
  Number of Aphids Choosing each Treatment: Untreated: 80

## CCCCCCCCC1CCC(=O)O1 (centres unmarked) [Gamma-Dodecalactone]
Codling Moth larvae; [4]
  Repellency at 24 hours: 46%
Codling Moth larvae; in vivo
  Increased Mortality over Control Mortality at 24 hours: 37%
[3]; [4]
  Repellency averaged over 5 hours: 82%

## CCCCCCCCCC1(C)CCC(=O)O1 (centres unmarked) [Gamma-Methyl Tridecalactone]
[3]; [4]
  Repellency averaged over 5 hours: 67%

## CCCCCC1C(=O)CCC1CC(=O)OC (stereo not drawn) [Methyl Dihydrojasmonate - High epi, Methyl Dihydrojasmonate]
[3]; [5]
  Repellency averaged over 5 hours: 39%

## CCCCCC1C(=O)CCC1CC(=O)OC (stereo not drawn) [Methyl Dihydrojasmonate - Low epi, Methyl Dihydrojasmonate]
[3]; [5]
  Repellency averaged over 5 hours: 58%

## CC1CCC(C(C)(C)O)C(O)C1 (centres unmarked) [Para-Menthanediol, p-Menthane-3,8-diol, reference compound]
Codling Moth larvae; [4]
  Increased Mortality over Control Mortality at 24 hours: 3%
  Repellency at 24 hours: 10%
[3]; [4]
  Repellency averaged over 5 hours: 91%

## CCCCCC1C(=O)CCC1CC(=O)OCC=C(C)C (centres unmarked) [Prenyl Dihydrojasmonate]
Codling Moth larvae; [4]
  Increased Mortality over Control Mortality at 24 hours: 34%
  Repellency at 24 hours: 79%

## CCCCCC1C(=O)CCC1CC(=O)OCCC (stereo not drawn) [Propyl Dihydrojasmonate - High epi, Propyl Dihydrojasmonate]
[3]; [5]
  Repellency averaged over 5 hours: 49%

## CCCCCC1C(=O)CCC1CC(=O)OCCC (stereo not drawn) [Propyl Dihydrojasmonate - Low epi, Propyl Dihydrojasmonate]
[3]; [5]
  Repellency averaged over 5 hours: 74%
